Where two headings read alike, the source gives them in different places.
Tested on: NLRP3
Assay: IL-1β secretion assay in PMA-differentiated, LPS/nigericin-stimulated THP-1 cells (384-well, ELISA read-out)
Type: cell-based, human
Conditions: Homo sapiens
Outline: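 Secreted IL-1β quantified by capture ELISA from supernatants of PMA-differentiated THP-1 cells (30K per well). Sequence: LPS 25 ng/mL priming 2 h, compound 1 h, nigericin 2 h; dose-responses normalized between high (LPS plus 5 μM nigericin) and low (LPS alone) controls.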

[1] = THP-1, IL-1β secretion, PMA-differentiated THP-1 cells, LPS then nigericin stimulation, ELISA read at 450 nm, read-out: Activity
[2] = THP-1, Table 4, IL-1β secretion, LPS/nigericin-stimulated THP-1 cells, read-out: IC50

SMILES | IC50 [1] | IC50 [2]
CC1(C)CN(CC(=O)N[C@H]2C[C@@](C)(O)C2)C(=O)c2ccc(Br)cc21 [Example 46, 2-(6-bromo-4,4-dimethyl-1-oxo-3H-isoquinolin-2-yl)-N-(cis-3-hydroxy-3-methyl-cyclobutyl)acetamide] | < 10 µM | 1.54 µM
CC(C)(O)CCNC(=O)CN1CC2(CC2)c2cc(Br)ccc2C1=O [Example 47, 2-(6-bromo-1-oxospiro[3H-isoquinoline-4,1′-cyclopropane]-2-yl)-N-(3-hydroxy-3-methylbutyl)acetamide] | < 10 µM | 4.7 µM
O=C(CN1CC2(CC2)c2cc(Br)ccc2C1=O)Nc1ncc(-n2cccn2)cn1 [Example 48, 2-(6-bromo-1-oxospiro[3H-isoquinoline-4,1′-cyclopropane]-2-yl)-N-(5-pyrazol-1-ylpyrimidin-2-yl)acetamide] | < 10 µM | 0.238 µM
CC(C)(O)C12CC(NC(=O)CN3CC4(CC4)c4cc(Br)ccc4C3=O)(C1)C2 [Example 49, 2-(6-bromo-1-oxo-spiro[3H-isoquinoline-4,1′-cyclopropane]-2-yl)-N-[3-(1-hydroxy-1-methyl-ethyl)-1-bicyclo[1.1.1]pentanyl]acetamide] | < 10 µM | 3.01 µM
CC(C)(O)C1CC(NC(=O)CN2CC3(CC3)c3cc(Br)ccc3C2=O)C1 (stereo not shown) [Example 50, 2-(6-bromo-1-oxospiro[3H-isoquinoline-4,1′-cyclopropane]-2-yl)-N-[3-(2-hydroxypropan-2-yl)cyclobutyl]acetamide] | < 10 µM | 6.44 µM
O=C(CN1CC2(CC2)c2cc(Br)ccc2C1=O)NC12CCC(CC1)OC2 [Example 51, 2-(6-bromo-1-oxo-spiro[3H-isoquinoline-4,1′-cyclopropane]-2-yl)-N-(2-oxabicyclo[2.2.2]octan-4-yl)acetamide] | 10 to 15 µM | 9.07 µM
CC1CC(NC(=O)CN2CC3(CC3)c3cc(Br)ccc3C2=O)C1 (stereo not shown) [Example 52, 2-(6-bromo-1-oxo-spiro[3H-isoquinoline-4,1′-cyclopropane]-2-yl)-N-(3-methylcyclobutyl)acetamide] | < 10 µM | 2.08 µM
CC12CC(NC(=O)CN3CC4(CC4)c4cc(Br)ccc4C3=O)(CO1)C2 [Example 53, 2-(6-bromo-1-oxo-spiro[3H-isoquinoline-4,1′-cyclopropane]-2-yl)-N-(1-methyl-2-oxabicyclo[2.1.1]hexan-4-yl)acetamide] | < 10 µM | 7.83 µM
O=C(CN1CC2(CC2)c2cc(Br)ccc2C1=O)N[C@H]1C[C@H](C(F)(F)F)C1 [Example 54, 2-(6-bromo-1-oxo-spiro[3H-isoquinoline-4,1′-cyclopropane]-2-yl)-N-[trans-3-(trifluoromethyl)cyclobutyl]acetamide] | < 10 µM | 1.55 µM
O=C(CN1CC2(CC2)c2cc(Br)ccc2C1=O)NC1CC(O)(C(F)(F)F)C1 (stereo not drawn) [Example 55, 2-(6-bromo-1-oxo-spiro[3H-isoquinoline-4,1′-cyclopropane]-2-yl)-N-[cis-3-hydroxy-3-(trifluoromethyl)cyclobutyl]acetamide] | < 10 µM | 0.861 µM
O=C(CN1CC2(CC2)c2cc(Br)ccc2C1=O)NC12CCC(CC1)CC2 [Example 56, N-(1-bicyclo[2.2.2]octanyl)-2-(6-bromo-1-oxo-spiro[3H-isoquinoline-4,1′-cyclopropane]-2-yl)acetamide] | < 10 µM | 7.92 µM
O=C(CN1CC2(CC2)c2cc(Br)ccc2C1=O)NC12CCC(O)(CC1)CC2 [Example 57, 2-(6-bromo-1-oxo-spiro[3H-isoquinoline-4,1′-cyclopropane]-2-yl)-N-(4-hydroxy-1-bicyclo[2.2.2]octanyl)acetamide] | < 10 µM | 5.92 µM
O=C(CN1CC2(CC2)c2cc(Br)ccc2C1=O)NC1CCCC(O)C1 (stereo not shown) [Example 58, 2-(6-bromo-1-oxo-spiro[3H-isoquinoline-4,1′-cyclopropane]-2-yl)-N-(3-hydroxycyclohexyl)acetamide] | < 10 µM | 3.09 µM
CN1CC(NC(=O)CN2CC3(CC3)c3cc(Br)ccc3C2=O)CC1=O (stereo not shown) [Example 59, 2-(6-bromo-1-oxo-spiro[3H-isoquinoline-4,1′-cyclopropane]-2-yl)-N-(1-methyl-5-oxo-pyrrolidin-3-yl)acetamide] | > 15 µM | 18.3 µM
O=C(CN1CC2(CC2)c2cc(Br)ccc2C1=O)NC1CC(OC(F)F)C1 (stereo not shown) [Example 60, 2-(6-bromo-1-oxo-spiro[3H-isoquinoline-4,1′-cyclopropane]-2-yl)-N-[3-(difluoromethoxy)cyclobutyl]acetamide] | < 10 µM | 8.68 µM
O=C(CN1CC2(CC2)c2cc(Br)ccc2C1=O)NC1CC2(COC2)C1 [Example 61, 2-(6-bromo-1-oxo-spiro[3H-isoquinoline-4,1′-cyclopropane]-2-yl)-N-(2-oxaspiro[3.3]heptan-6-yl)acetamide] | < 10 µM | 2.75 µM

SMILES | IC50 [1] | IC50 [2]
CCN1CC(NC(=O)CN2CC3(CC3)c3cc(Br)ccc3C2=O)CCC1=O (stereo not shown) [Example 62, 2-(6-bromo-1-oxo-spiro[3H-isoquinoline-4,1′-cyclopropane]-2-yl)-N-(1-ethyl-6-oxo-3-piperidyl)acetamide] | 10 to 15 µM | 12.1 µM
CC(C)(O)CNC(=O)CN1CC2(CC2)c2cc(Br)ccc2C1=O [Example 63, 2-(6-bromo-1-oxo-spiro[3H-isoquinoline-4,1′-cyclopropane]-2-yl)-N-(2-hydroxy-2-methyl-propyl)acetamide] | > 15 µM | 16.5 µM
O=C(CN1CC2(CC2)c2cc(Br)ccc2C1=O)N[C@H]1C[C@@H](CO)C1 [Example 64, 2-(6-bromo-1-oxo-spiro[3H-isoquinoline-4,1′-cyclopropane]-2-yl)-N-[cis-3-(hydroxymethyl)cyclobutyl]acetamide] | < 10 µM | 6.4 µM
N#CC1CC(NC(=O)CN2CC3(CC3)c3cc(Br)ccc3C2=O)C1 (stereo not shown) [Example 65, 2-(6-bromo-1-oxo-spiro[3H-isoquinoline-4,1′-cyclopropane]-2-yl)-N-(3-cyanocyclobutyl)acetamide] | < 10 µM | 6.86 µM
CC(C)(O)C1CCN(C(=O)CN2CC3(CC3)c3cc(Br)ccc3C2=O)C1 (stereo not shown) [Example 66, 6-bromo-2-[2-[3-(1-hydroxy-1-methyl-ethyl)pyrrolidin-1-yl]-2-oxo-ethyl]spiro[3H-isoquinoline-4,1′-cyclopropane]-1-one] | > 15 µM | 26.2 µM
O=C(CN1CC2(CC2)c2cc(Br)ccc2C1=O)NC1CC(F)(F)C1 [Example 67, 2-(6-bromo-1-oxo-spiro[3H-isoquinoline-4,1′-cyclopropane]-2-yl)-N-(3,3-difluorocyclobutyl)acetamide] | < 10 µM | 8.75 µM
CC1(O)CCN(C(=O)CN2CC3(CC3)c3cc(Br)ccc3C2=O)C1 (stereo not shown) [Example 68, 6-bromo-2-[2-(3-hydroxy-3-methyl-pyrrolidin-1-yl)-2-oxo-ethyl]spiro[3H-isoquinoline-4,1′-cyclopropane]-1-one] | > 15 µM | 28.6 µM
CC1CN(CC(=O)NC2CC(C)(O)C2)C(=O)c2ccc(Br)cc21 (stereo not drawn) [Example 69, 2-(6-bromo-4-methyl-1-oxo-3,4-dihydroisoquinolin-2-yl)-N-(cis-3-hydroxy-3-methyl-cyclobutyl)acetamide] | < 10 µM | 0.643 µM
O=C(CN1CC2(CC2)c2cc(Br)ccc2C1=O)N[C@@H]1CCCN(C2CCC2)C1 [Example 70, 2-(6-bromo-1-oxo-spiro[3H-isoquinoline-4,1′-cyclopropane]-2-yl)-N-[(3R)-1-cyclobutyl-3-piperidyl]acetamide] | < 10 µM | 0.191 µM
COC(=O)N1CCC[C@@H](NC(=O)CN2CC3(CC3)c3cc(Br)ccc3C2=O)C1 [Example 71, methyl (3R)-3-[[2-(6-bromo-1-oxo-spiro[3H-isoquinoline-4,1′-cyclopropane]-2-yl)acetyl]amino]piperidine-1-carboxylate] | < 10 µM | 6.96 µM
N#Cc1ccc(NC(=O)CN2CC3(CC3)c3cc(Br)ccc3C2=O)nc1 [Example 72, 2-(6-bromo-1-oxospiro[3H-isoquinoline-4,1′-cyclopropane]-2-yl)-N-(5-cyanopyridin-2-yl)acetamide] | < 10 µM | 0.511 µM
Cn1cc(NC(=O)CN2CC3(CC3)c3cc(Br)ccc3C2=O)ccc1=O [Example 73, 2-(6-bromo-1-oxo-spiro[3H-isoquinoline-4,1′-cyclopropane]-2-yl)-N-(1-methyl-6-oxo-3-pyridyl)acetamide] | 10 to 15 µM | 11.5 µM
CC1CN(CC(=O)Nc2ncccn2)C(=O)c2ccc(Br)cc21 (stereo not shown) [Example 74, 2-(6-bromo-4-methyl-1-oxo-3,4-dihydroisoquinolin-2-yl)-N-pyrimidin-2-yl-acetamide] | < 10 µM | 1.76 µM
O=C(CN1CC2(CCCC2)c2cc(Br)ccc2C1=O)Nc1ncccn1 [Example 75, 2-(6-bromo-1-oxo-spiro[3H-isoquinoline-4,1′-cyclopentane]-2-yl)-N-pyrimidin-2-yl-acetamide] | 10 to 15 µM | 12.3 µM
CC1N(CC(=O)Nc2ncccn2)C(=O)c2ccc(C(F)(F)F)cc2C12CC2 (stereo not shown) [Example 76, 2-[3-methyl-1-oxo-6-(trifluoromethyl)spiro[3H-isoquinoline-4,1′-cyclopropane]-2-yl]-N-pyrimidin-2-ylacetamide] | > 15 µM | 16.2 µM
O=C1c2ccc(Br)cc2C2(CC2)CN1C1(C(=O)Nc2ncccn2)CC1 [Example 77, 1-(6-bromo-1-oxospiro[3H-isoquinoline-4,1′-cyclopropane]-2-yl)-N-pyrimidin-2-ylcyclopropane-1-carboxamide] | < 10 µM | 3.72 µM

— US20230416205A1, “COMPOUNDS, COMPOSITIONS, AND METHODS” (Denali Therapeutics Inc, priority 2020, published 2023)
